Measurements as given in patent EP0434173A2, “Use of NMDA receptor antagonists for treatment of chronic neurodegenerative diseases” (SCHERING AKTIENGESELLSCHAFT, priority 1989, dated 1991).

Tested on: Dopaminneurone der SNC
Assay: Prevention of MPP^+-induced degeneration of dopamine neurons after local co-injection into the substantia nigra pars compacta; count of intact neurons in cresyl violet stained brain sections
Type: in vivo, Ratten
Details: for Anzahl intakter Neurone (Mittelwert ± S.E.M.): right SNC
Excerpt: Zum Nachweis der protectiven Wirkung der erfindungsgemäßen Verbindungen wurde der toxische Metabolit MPP^+ lokal in die Substantia nigra von Ratten injiziert und somit eine rasch fortschreitende Degeneration der Dopaminneuronen bewirkt.

**Q.** With `NC(CCCCCP(=O)(O)O)C(=O)O` (stereo not drawn) [AP-7, 2-Amino-7-phosphonoheptansäure] as the compound, how does the “Anzahl intakter Neurone (Mittelwert ± S.E.M.)” value (“Anzahl intakter Neurone” for short) (AP-7 0.025 µmol co-injected with MPP^+ (0.025 µmol pro Seite), 4 h after injection, n=3) read?
**A.** Its value is 26 ± 2.

**Q.** What about the “Anzahl intakter Neurone” value (AP-7 0.1 µmol co-injected with MPP^+ (0.025 µmol pro Seite), 4 h after injection, n=4) of the same compound?
**A.** Its value is 91 ± 24 x.

**Q.** What about the “Anzahl intakter Neurone” value (AP-7 0.25 µmol co-injected with MPP^+ (0.025 µmol pro Seite), 4 h after injection, n=9) of the same compound?
**A.** Its value is 128 ± 10 xxx.

**Q.** What about the “Anzahl intakter Neurone” value (AP-7 0.25 µmol co-injected with MPP^+ (0.025 µmol pro Seite), 8 h after injection, n=4) of the same compound?
**A.** The value was 79 ± 9 xx.

**Q.** And the “Anzahl intakter Neurone” value (AP-7 0.25 µmol co-injected with MPP^+ (0.025 µmol pro Seite), 24 h after injection, n=4)?
**A.** The value was 66 ± 16 x.

**Q.** What about the “neurodegenerativer Effekt von MPP^+ auf die Dopaminneuronen” value (simultaneous local administration with MPP^+ into the substantia nigra of rats, result in words) of the same compound?
**A.** The value was “nahezu vollständig auf”.
